How the values were obtained:
rice = experiment: Test B flooded paddy test; type: in vivo, Oryza sativa; conditions: Flood, 250 g ai/ha, 13 to 15 days; scale 0 to 100, 0 no effect, 100 complete control
Excerpt: At time of treatment, test pots were flooded to 3 cm above the soil surface, treated by application of test compounds directly to the paddy water, and then maintained at that water depth for the duration of the test. Treated plants and controls were maintained in a greenhouse for 13 to 15 days, after which time all species were compared to controls and visually evaluated. […] A dash (-) response means no test result.

common sowthistle = experiment: Test F preemergence test; type: in vivo, Sonchus oleraceous; conditions: scale 0 to 100
Procedure, shortened: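 Compound in a non-phytotoxic solvent blend with surfactant is applied preemergence to planted seeds or postemergence to sugarcane plants. Plants and controls stay in the greenhouse 14 to 21 days before visual comparison.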

windgrass [1] = experiment: Test D preemergence test; type: in vivo, Apera spica-venti; conditions: scale 0 to 100
Excerpt: Seeds of plant species selected from annual bluegrass (Poa annua), blackgrass (Alopecurus myosuroides), downy bromegrass (Bromus tectorum), field violet (Viola arvensis), green foxtail (Setaria viridis), Italian ryegrass (Lolium multiflorum), littleseed canarygrass (Phalaris minor), spring wheat (Triticum aestivum), wild oat (Avena fatua), […]), winter barley (Hordeum vulgare), and winter wheat (Triticum aestivum) were planted and treated preemergence with test chemicals formulated in a non-phytotoxic solvent mixture which included a surfactant. […] A dash (-) response means no test result.

field sandbur = experiment: Test G preemergence test; type: in vivo, Cenchrus incertus; conditions: scale 0 to 100
chickweed = experiment: Test C postemergence test; type: in vivo, Stellaria media; conditions: for Plant response rating, Chickweed: scale 0 to 100, 0 no effect, 100 complete control
Procedure, shortened: (§1)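 Postemergence sprays of formulated test chemicals on plants 2 to 18 cm tall (1- to 4-leaf stage). Greenhouse hold for 13 to 15 days, then visual rating of each species against untreated controls; dash means no test result.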

windgrass [2] = experiment: Test C pre-/postemergence test; type: in vivo, Apera spica-venti; conditions: Postemergence; for Plant response rating, Windgrass: scale 0 to 100, 0 no effect, 100 complete control
Russian thistle = experiment: Test F preemergence test; type: in vivo, Salsola kali; conditions: scale 0 to 100
Excerpt: Seeds of plant species selected from bermudagrass (Cynodon dactylon), Surinam grass (Brachiaria decumbens), large crabgrass (Digitaria sanguinalis), green foxtail (Setaria viridis), goosegrass (Eleusine indica), johnsongrass (Sorghum halepense), kochia (Kochia scoparia), pitted morningglory (Ipomoea lacunosa), purple nutsedge (Cyperus rotundus), common ragweed (Ambrosia elation), mustard (Brassica nigra), guineagrass (Panicum maximum), […] (Paspalum dilatatum), barnyardgrass (Echinochloa crus-galli), southern sandbur (Cenchrus echinatus), common sowthistle (Sonchus oleraceous), prickly […] spinosa), Italian ryegrass (Lolium multiflorum), common purslane (Portulaca oleracea), broadleaf signalgrass (Brachiaria platyphylla), common groundsel (Senecio vulgaris), common chickweed (Stellaria media), Virginia dayflower (Commelina virginica), annual bluegrass (Poa annua), naked crabgrass (Digitaria nuda), […] cochinchinensis), quackgrass (Elytrigia repens), Canada horseweed (Conyza canadensis), field bindweed (Convolvulus arvensis), […] (Bidens bipinnata), common mallow (Malva sylvestris), Russian thistle (Salsola kali), and sugarcane (Saccharum officinarum) were planted and treated preemergence with test chemicals formulated in a non-phytotoxic solvent mixture which included a surfactant. At a different time, sugarcane was treated with postemergence applications of some of the test chemicals formulated in the same manner. Plants were approximately 3- to 4-leaf stage for the postemergence treatments. Treated plants and controls were maintained in a greenhouse for 14 to 21 days, after which time all species were compared to controls and visually evaluated. […] A dash (-) response means no test result.

giant foxtail = experiment: Test G preemergence test; type: in vivo, Setaria faberii; conditions: scale 0 to 100
yellow nutsedge = experiment: Test G preemergence test; type: in vivo, Cyperus esculentus; conditions: scale 0 to 100
winter barley = experiment: Test C postemergence test; type: in vivo, Hordeum vulgare; conditions: for Plant response rating, Barley: scale 0 to 100, 0 no effect, 100 complete control
Procedure, shortened: as §1

canarygrass = experiment: Test C postemergence test; type: in vivo, Phalaris minor; conditions: for Plant response rating, Canarygrass: scale 0 to 100, 0 no effect, 100 complete control
Procedure, shortened: as §1

Structure (SMILES)	Plant response rating, Rice, Transplanted (rice)	Plant response rating, Windgrass (windgrass [1]; 31 g ai/ha)	Plant response rating, Windgrass (windgrass [1]; 62 g ai/ha)	Plant response rating, Windgrass (windgrass [1]; 125 g ai/ha)	Plant response rating, Windgrass (windgrass [1]; 250 g ai/ha)	Plant response rating, Sandbur (field sandbur; 31 g ai/ha)	Plant response rating, Sandbur (field sandbur; 62 g ai/ha)	Plant response rating, Sandbur (field sandbur; 125 g ai/ha)	Plant response rating, Sandbur (field sandbur; 250 g ai/ha)	Plant response rating, Russian Thistle (Russian thistle; 8 g ai/ha, preemergence)	Plant response rating, Russian Thistle (Russian thistle; Preemergence, 16 g ai/ha)	Plant response rating, Russian Thistle (Russian thistle; Preemergence, 31 g ai/ha)	Plant response rating, Foxtail, Giant (giant foxtail; 31 g ai/ha)	Plant response rating, Foxtail, Giant (giant foxtail; 62 g ai/ha)	Plant response rating, Foxtail, Giant (giant foxtail; 125 g ai/ha)	Plant response rating, Foxtail, Giant (giant foxtail; 250 g ai/ha)	Plant response rating, Nutsedge, Yellow (yellow nutsedge; 31 g ai/ha)	Plant response rating, Nutsedge, Yellow (yellow nutsedge; 62 g ai/ha)	Plant response rating, Nutsedge, Yellow (yellow nutsedge; 125 g ai/ha)	Plant response rating, Nutsedge, Yellow (yellow nutsedge; 250 g ai/ha)	also measured
Cc1cc[n+]([O-])c([S+]([O-])Cc2c(C(F)(F)F)nn(C)c2OC(F)F)c1 (stereo not shown) [Compound 1]	80	10	70	100	100	0	40	65	100	0	0	0	20	95	100	100	0	35	75	40	Plant response rating, Sowthistle (common sowthistle; 8 g ai/ha, preemergence): 0; Plant response rating, Sowthistle (common sowthistle; 16 g ai/ha, preemergence): 0; Sowthistle plant response rating (common sowthistle; 62 g ai/ha, Preemergence): 70; Plant response rating, Sowthistle (common sowthistle; Preemergence, 31 g ai/ha): 30; Plant response rating (0 to 100), Chickweed (chickweed; 31 g ai/ha): 50; Plant response rating, Chickweed (chickweed; 62 g ai/ha): 65; Plant response rating, Chickweed (chickweed; 125 g ai/ha): 90; Plant response rating, Chickweed (chickweed; 250 g ai/ha): 90; Plant response rating (0 to 100), Windgrass (windgrass [2]; 31 g ai/ha): 0; Plant response rating (0 to 100), Windgrass (windgrass [2]; 62 g ai/ha): 10; Plant response rating, Windgrass (windgrass [2]; 125 g ai/ha): 60; Plant response rating, Windgrass (windgrass [2]; 250 g ai/ha): 85; Plant response rating (0 to 100), Barley (winter barley; 31 g ai/ha): 0; Plant response rating, Barley (winter barley; 62 g ai/ha): 0; Plant response rating, Barley (winter barley; 125 g ai/ha): 0; Plant response rating, Barley (winter barley; 250 g ai/ha): 0; Plant response rating (0 to 100), Canarygrass (canarygrass; 31 g ai/ha): 0; Plant response rating, Canarygrass (canarygrass; 62 g ai/ha): 0; Plant response rating, Canarygrass (canarygrass; 125 g ai/ha): 0; Plant response rating, Canarygrass (canarygrass; 250 g ai/ha): 0
Cn1nc(C(F)(F)F)c(CS(=O)(=O)c2cccc[n+]2[O-])c1OC(F)F [Compound 4]	90	90	100	100	100	0	30	60	100	0	0	100	40	50	90	100	0	0	15	40	Russian Thistle plant response rating (Russian thistle; 62 g ai/ha, Preemergence): 100
